Source: paper PMC4682813, “The Aminosteroid Derivative RM-133 Shows In Vitro and In Vivo Antitumor Activity in Human Ovarian and Pancreatic Cancers” (PLoS ONE, 2015)
“And” between values parts separate entries of the source, which are not always exact repeats. Equal values may be shown once. Read-outs that look alike come from different tables or passages of the source.

What was measured:
[1] = tested on: OVCAR-3 tumors xenografted in nu/nu nude mice; assay: OVCAR-3 xenografts in nude mice, propylene glycol-based vehicle (first part); type: in vivo; settings: 60 mg/kg s.c. daily, propylene glycol:EtOH (92:8)
Excerpt: (§1) All in vivo experiments were approved by our Institutional Animal Care and Use Committee (Comités de protection des animaux de l’Université Laval) and carried out according to the guidelines of the Canadian Council on Animal Care. For xenografts, homozygous ♀ nu/nu nude mice (24–42 days old) were purchased from Charles River Inc. (Saint-Constant, QC, Canada) and housed (four to five) in vinyl micro-isolated ventilated cages, equipped with air lids, which were kept in laminar airflow hoods and maintained under pathogen-limiting conditions. During the acclimatization and study period, the animals were housed under a controlled environment at 22 ± 3°C, with 50 ± 20% relative humidity and light set at 12 h/day (light on at 07:15). Rodent food (Rodent diet #T.2018.15, Harlan Teklad, Madison, WI) and water were provided ad libitum. For nu/nu nude mice, food and water were sterilized prior to dispensing to the animals. Standard Balb/c mice were used for pharmacokinetic studies. Animals were anesthetized with isoflurane and killed by cervical dislocation.
Twenty-two ♀ nu/nu nude mice (22–24 g) were inoculated s.c. with 5×10^6 OVCAR-3 cells (in 0.1 mL of growth medium containing 30% Matrigel (BD Biosciences, Bedford, MA)) into both flanks in each mouse via a 2.5-cm long 22-gauge needle. After 11 days, tumor-bearing mice were randomly assigned to two groups of 11 mice each according to tumor size, i.e. a control group (n = 12 tumors) and a treated group (n = 15 tumors). RM-133 was administered s.c. daily at 60 mg/kg in 0.1 mL of propylene glycol:EtOH (92:8). Animals in the control group received 0.1 mL of vehicle alone. Tumor size was measured twice weekly using a caliper. Two perpendicular diameters (L and W) were measured, and the tumor area (in mm^2) was calculated using the formula (L/2) x (W/2) x π. Animals were weighed at various intervals during the experiment.

[2] = RM-133 plasma and tumor concentration in nude mice after the xenograft experiment (second part), LC-MS/MS; type: in vivo, nu/nu nude mice; settings: for concentration at 12 h: 12 h after single s.c. 60 mg/kg (0.1 mL)
Description: At the end of the xenograft experiment, and in order to obtain preliminary pharmacological data, mice in treated groups were separated into 4 subgroups of 2–3 mice each, injected s.c. with RM-133 (60 mg/kg) and sacrificed after 3, 7, 12, or 24 h. In parallel, mice in the control group were also separated into 4 subgroups, treated with RM-133 (60 mg/kg) as for treated mice, and sacrificed at the same intervals. Blood was collected from mice by cardiac puncture, and the plasma concentration of RM-133 determined by liquid chromatography–tandem mass spectrometry (LC-MS/MS) as previously reported. Tumors of the mice in the treated group were collected at necropsy, pooled, homogenized according to a known procedure and the quantity of RM-133 was determined by LC-MS/MS.

[3] = Plasma concentration of RM-133 in mice at different injection doses; type: in vivo, Balb/c mice
Description: Eight ♀ Balb/c mice weighing approximately 20 g were separated in 4 groups. Mice in each group received a single s.c. injection of RM-133 (30, 60, 120, or 480 mg/kg). The vehicle used was propylene glycol:EtOH (92:8) and injection volume was 0.1 mL for all concentrations except at 480 mg/kg, where 0.2 mL was used. Blood was collected by cardiac puncture after 12 h, and the plasma concentration of RM-133 determined by LC-MS/MS as above.

[4] = Solubility of RM-133 in injection vehicles; type: physicochemical; settings: vehicle #5 sunflower oil:tetrahydrofuran (92:8)
Excerpt: Eleven different vehicles were investigated by s.c. injection. These vehicles were formulated as follows: vehicle #1 [propylene glycol:EtOH (92:8)]; vehicle #2 [aqueous 0.4% methylcellulose:EtOH (92:8)]; vehicle #3 [castor oil:EtOH:benzyl alcohol:benzyl benzoate (65:10:10:15)]; vehicle #4 [sunflower oil:EtOH (92:8)]; vehicle #5 [sunflower oil:tetrahydrofuran (92:8)]; vehicle #6 [aqueous 25% β-cyclodextrin:EtOH (92:8)]; vehicle #7 [sesame oil:EtOH:benzyl benzoate:benzyl alcohol:Tween 80 (89.8:7.8:1:1:0.5)]; vehicle #8 [soya oil:EtOH (92:8)]; vehicle #9 [RPMI medium:EtOH (92:8)]; vehicle #10 [saline:dimethyl sulfoxide (DMSO):Tween 80 (89.5:10:0.5)]; and vehicle #11 [saline:benzyl alcohol:carboxymethylcellulose:Tween 80 (98.2:0.9:0.5:0.4)]. The eight vehicles producing the best RM-133 solubility (#1–8) were injected s.c. (0.1 mL) without the test compound (RM-133) for tolerance and behavioral evaluation studies, by observing mice at 0.25, 1, 3, 7, 23, 26, 28, 30, and 96 h post-injection. Finally, RM-133 was injected s.c. once at 120 mg/kg/0.1 mL of the best […] tolerated vehicles (#1,2,4–7) into ♀ Balb/c mice (4 per group), and mice were next monitored with blood collection by cardiac puncture after 3 and 12 h. The plasma concentration of RM-133 was then determined by LC-MS/MS as above.

[5] = tested on: PANC-1 tumors xenografted in nu/nu nude mice; assay: PANC-1 xenografts in nude mice; type: in vivo; settings: aqueous 0.4% methylcellulose:EtOH (92:8), 240 mg/kg s.c. twice a day every other day
Excerpt: as §1
Twenty female nu/nu nude mice (22–24 g) were inoculated with 5×10^6 PANC-1 cells per flank, in 30% matrigel-containing culture medium (0.1 mL). Ten days after inoculation, tumor-bearing mice were randomized in 2 groups of 10 mice each. […] Mice in the second (control) group (n = 18 tumors) received the vehicle only. As with previous xenografts, the tumor area was measured and mouse body weight monitored.

[6] = mouse, in vivo
Description: Ten ♀ Balb/c mice weighing approximately 23 g were separated in 3 groups. […] Mice in groups 1 and 2 received a total of 8 injections over 4 days and were sacrificed on day 8. Mice behavior was monitored during the whole duration of the experiment, and macroscopic observation of organs was performed upon necropsy.

[7] = Plasma concentration of RM-133 with different vehicles; type: in vivo, Balb/c mice; settings: female, Balb/c, mouse, sc, 120 mg/kg, single s.c. 120 mg/kg in 0.1 mL
[8] = vehicle #7 sesame oil (89.7%) EtOH (7.8%) benzyl benzoate (1%) benzyl alcohol (1%) Tween 80 (0.5%)
[9] = vehicle #8 soya oil (92%) EtOH (8%)

C#C[C@]1(O)CC[C@H]2[C@@H]3CC[C@H]4C[C@H](O)[C@@H](N5CCN(C(=O)[C@@H]6CCCN6C(=O)c6ccc7ccccc7n6)CC5)C[C@]4(C)[C@H]3CC[C@@]21C [RM-133]
effect on body weight ([1]; 21-day treatment): no apparent effect on body weight | day from which treated tumors were significantly smaller than control [1]: 15 days | difference in tumor size between treated and control groups (tumor growth inhibition) ([1]; end of treatment (21 days)): 60% | accumulation in blood ([2]; 21 days-xenograft experiment, 60 mg/kg daily s.c.): does not accumulate in blood | concentration inside the tumor ([2]; OVCAR-3 tumors of treated mice collected at necropsy, pooled): 1.2 μM and 773 ng/g | concentration at 12 h ([2]; nu/nu nude, mouse, plasma, sc, 60 mg/kg, group A: previously treated daily for 21 days): 178 ng/mL | concentration at 12 h ([2]; nu/nu nude, mouse, plasma, sc, 60 mg/kg, group B: not previously exposed to the drug): 91 ng/mL | concentration at 24 h ([2]; nu/nu nude, mouse, plasma, sc, 60 mg/kg, single s.c. 60 mg/kg in 0.1 mL propylene glycol:EtOH (92:8), 24 h, nude mice): 81 ng/mL | maximum average plasma concentration ([2]; single s.c. 60 mg/kg in 0.1 mL propylene glycol:EtOH (92:8), 3 h, nude mice): 460 ng/mL | tolerance ([3]; 480 mg/kg s.c. in 0.2 mL propylene glycol:EtOH (92:8), motion discomfort, same with vehicle alone): not tolerated | plasma concentration as percentage of the injected amount ([3]; 12 h after single s.c. 30 mg/kg, propylene glycol:EtOH (92:8)): 17% | concentration at 12 h ([3]; female, mouse, plasma, sc, 12 h after single s.c. 30 mg/kg, propylene glycol:EtOH (92:8), Balb/c mice): 167 ng/mL | solubility in vehicle [4]: poorly soluble | apparent toxicity during the experimental period or at necropsy [5]: no apparent toxicity | body weight [5]: not affected | reduction of PANC-1 tumor size progression ([5]; day 22): 75% | reduction of PANC-1 tumor progression ([5]; end of treatment (40 days)): 63% | mice with slightly enlarged kidneys at necropsy ([6]; female, Balb/c, 24 h): 75% | adverse effect on mice ([6]; 120 mg/kg): no adverse effect | adverse effect on mice ([6]; 240 mg/kg): no adverse effect | macroscopic observation of organs at necropsy ([6]; sc): organs did not show any detectable abnormality | concentration at 3 h [7, 8]: 302 ± 7 ng/mL | concentration at 12 h [7, 8]: 214 ± 8 ng/mL | concentration at 3 h [7, 9]: 137 ± 2 ng/mL | concentration at 12 h [7, 9]: 52 ± 1 ng/mL
